Data set [1] has as its target T1, human κ opioid receptor (Homo sapiens, UniProt P41145).
T1 construct: expressed in transfected cells; cell membranes
Description: [3H]diprenorphine binding assay.

Data set [2] deals with T1, human κ opioid receptor. Description: cAMP accumulation assay (forskolin-induced). Type of data set: cell-based. The note with it: 2 μM forskolin, 30 min; read-out: EC50 for inhibition of forskolin-induced cAMP accumulation. The procedure: PathHunter® U2OS OPRK1 β-Arrestin cell line (DiscoverX) was maintained in McCoy’s 5A with 10% FBS, 250 μg/ml Hygromycin B and 500 μg/ml G418. When the cells reached to 80–90% confluence, they were collected and resuspended in HBSS (1X) containing 50 mM HEPES, 5 mM IBMX and 1% BSA stabilizer (lance® UltracAMP Kit, PerkinElmer) by adjusting the cell density to 3 × 10^5 cells/mL. The cells were divided into 384-well white plate (Corning®3572) at a volume of 5 μL, and were treated with compounds and 2 μM forskolin (an inducer of intracellular cAMP formation) for 30 min at room temperature. Subsequently, 5 μL of Eu-cAMP Tracer Working Solution and 5 μL of Ulight-anti-cAMP Working Solution per well were added to reach a final volume of 20 μL. The plate was incubated for 1 h at room temperature in the dark. The cAMP levels were then determined by using a microplate reader with TR-FRET assay ([Wang et al., 2014]). The results was expressed as (1–Signal[compound]/Signal[control]) × 100.
In general terms: cAMP levels reflect the balance of adenylyl cyclase and phosphodiesterase activity.

For the next data set, the system named is C57BL/6J mice. The data set is described as follows: Hot-plate test. Type of data set: in vivo. The settings on record: hot-plate test ED50 / writhing test ED50. The procedure: The hot-plate test was performed according to previous reports ([DeWire et al., 2013]; [Hill et al., 2018a]; [Wang et al., 2018]). Female C57BL/6J mice were individually placed on a hot plate at 56°C and the latency to licking or jumping was then recorded. A cut-off time of 30 s was imposed in order to prevent tissue damage. Before drug administration, the latency of each mouse was measured and defined as the pre-drug value. The animals with a pre-drug value of greater than 20 s were excluded.

Another data set deals with mice. Description: Locomotor activity test (sedation). The settings on record: 0.4 mg/kg, 15 min post-dosing.

T1 sequence (P41145 whole entry): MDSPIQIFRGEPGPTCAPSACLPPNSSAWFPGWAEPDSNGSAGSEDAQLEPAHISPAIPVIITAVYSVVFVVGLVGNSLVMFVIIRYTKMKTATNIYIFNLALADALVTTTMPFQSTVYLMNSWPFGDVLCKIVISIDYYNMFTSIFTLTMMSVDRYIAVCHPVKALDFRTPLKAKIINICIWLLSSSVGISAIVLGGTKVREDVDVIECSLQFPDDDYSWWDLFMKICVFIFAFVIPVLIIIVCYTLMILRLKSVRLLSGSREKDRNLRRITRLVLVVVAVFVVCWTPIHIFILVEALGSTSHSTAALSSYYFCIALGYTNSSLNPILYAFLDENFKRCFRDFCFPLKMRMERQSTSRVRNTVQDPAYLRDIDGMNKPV

Broadly, the IC50 is the point on the concentration scale where inhibition reaches its midpoint. The term Kd denotes a measure of binding affinity in units of concentration. Usually EC50 stands for the concentration needed to bring the measured effect to its halfway point. In the case of `CC(=O)N1CC2(CCN(C(=O)[C@@H](CCCCN)NC(=O)[C@@H](CC(C)C)NC(=O)[C@@H](Cc3ccccc3)NC(=O)[C@H](N)Cc3ccccc3)CC2)C1` [HSK21542, 7-(D-phenylalanyl-D-phenylalanyl-D-leucyl-D-lysyl)-2-acetyl-2,7-diazaspiro (3.5)nonane], the IC50 on human κ opioid receptor [1] (HEK-293 membranes expressing human KOR, 0.6 nM [3H]diprenorphine, 25°C, 60 min, read-out: IC50 for inhibition of [3H]diprenorphine binding to KOR) is 0.54 nM. Further, the Kd on human κ opioid receptor [1] (competitive binding kinetic model, [3H]diprenorphine, read-out: Kd for binding to KOR (binding kinetics)) turned out to be 0.068 nM. The EC50 at human κ opioid receptor [2] is 0.00241 nM. Besides, in the data set with C57BL/6J mice, the Therapeutic index worked out at 116.6. The “effect on locomotor activity / total distance traveled” value with mice is “did not significantly affect”.

The values are drawn from article PMC8635029 (Frontiers in Pharmacology, 2021).
